Measurements from ChEMBL document CHEMBL5058647, “Data for DCP probe JNJ-9350” (2022).

How the values were obtained:
Rattus norvegicus = species on record: Rattus norvegicus; conditions: Compound concentration 10.0 uM
[1] = molecular target: Peroxisomal N(1)-acetyl-spermine/spermidine oxidase (Homo sapiens, UniProt Q6QHF9); test: HyPerBlu POAX enzymatic assay
[2] = molecular target: 5-hydroxytryptamine receptor 2C (Homo sapiens) (UniProt P28335); conditions: Compound concentration 10.0 uM
[3] = molecular target: 5-hydroxytryptamine receptor 1B (Homo sapiens, UniProt P28222); conditions: Compound concentration 10.0 uM
[4] = molecular target: Histamine H2 receptor (Homo sapiens) (UniProt P25021); conditions: Compound concentration 10.0 uM
[5] = molecular target: Muscarinic acetylcholine receptor M4 (Homo sapiens, UniProt P08173); test: GPCRScan assay: inhibition of M4; parameters: radioligand conc. used [nm] 0.3 – 1.0, parental cells stable CHO
[6] = molecular target: D(1B) dopamine receptor (Homo sapiens) (UniProt P21918); conditions: Compound concentration 10.0 uM
[7] = molecular target: Alpha-2A adrenergic receptor (Homo sapiens) (UniProt P08913); conditions: Compound concentration 10.0 uM
[8] = molecular target: T1, Sodium-dependent dopamine transporter (Homo sapiens, UniProt Q01959); test: GPCRScan assay: inhibition of DAT; parameters: radioligand conc. used [nm] 3.6 – 16.0, parental cells stable HEK
[9] = GPCRScan assay: inhibition of GABA/PBR; parameters: species or system Rattus norvegicus; radioligand conc. used [nm] 0.3 – 2.0, parental cells brain tissue
[10] = molecular target: 5-hydroxytryptamine receptor 7 (Homo sapiens) (UniProt P34969); conditions: Compound concentration 10.0 uM
[11] = molecular target: 5-hydroxytryptamine receptor 2A (Homo sapiens) (UniProt P28223); conditions: Compound concentration 10.0 uM
D(4) dopamine receptor = D(4) dopamine receptor (Homo sapiens, UniProt P21917); test: GPCRScan assay: inhibition of D4; parameters: radioligand conc. used [nm] 0.6 – 1.7, parental cells Stable HEK
[12] = molecular target: Alpha-1B adrenergic receptor (Homo sapiens, UniProt P35368); test: GPCRScan assay: inhibition of Alpha1B; parameters: radioligand conc. used [nm] 0.3 – 1.0, parental cells stable HEK
[13] = molecular target: Alpha-1A adrenergic receptor (Homo sapiens) (UniProt P35348); conditions: Compound concentration 10.0 uM
[14] = molecular target: T1, Sodium-dependent dopamine transporter; conditions: Compound concentration 10.0 uM
[15] = molecular target: Alpha-1D adrenergic receptor (Homo sapiens) (UniProt P25100); conditions: Compound concentration 10.0 uM
[16] = molecular target: Sigma intracellular receptor 2 (Homo sapiens, UniProt Q5BJF2); conditions: Compound concentration 10.0 uM
[17] = molecular target: D(4) dopamine receptor (Homo sapiens) (UniProt P21917); conditions: Compound concentration 10.0 uM
[18] = molecular target: T2, Kappa-type opioid receptor (Homo sapiens, UniProt P41145); conditions: Compound concentration 10.0 uM
[19] = molecular target: Sodium-dependent serotonin transporter (Homo sapiens) (UniProt P31645); conditions: Compound concentration 10.0 uM
[20] = molecular target: Alpha-2C adrenergic receptor (Homo sapiens) (UniProt P18825); conditions: Compound concentration 10.0 uM
[21] = molecular target: 5-hydroxytryptamine receptor 1A (Homo sapiens) (UniProt P08908); conditions: Compound concentration 10.0 uM
D(3) dopamine receptor [22] = molecular target: T3, D(3) dopamine receptor (Homo sapiens, UniProt P35462); conditions: Compound concentration 10.0 uM
[23] = molecular target: Mu-type opioid receptor (Homo sapiens) (UniProt P35372); conditions: Compound concentration 10.0 uM
[24] = molecular target: D(1A) dopamine receptor (Homo sapiens) (UniProt P21728); conditions: Compound concentration 10.0 uM
[25] = molecular target: 5-hydroxytryptamine receptor 2B (Homo sapiens, UniProt P41595); conditions: Compound concentration 10.0 uM
[26] = molecular target: 5-hydroxytryptamine receptor 1E (Homo sapiens) (UniProt P28566); conditions: Compound concentration 10.0 uM
[27] = molecular target: Histamine H3 receptor (Homo sapiens) (UniProt Q9Y5N1); conditions: Compound concentration 10.0 uM
[28] = molecular target: Muscarinic acetylcholine receptor M2 (Homo sapiens) (UniProt P08172); conditions: Compound concentration 10.0 uM
[29] = molecular target: Histamine H4 receptor (Homo sapiens) (UniProt Q9H3N8); conditions: Compound concentration 10.0 uM
[30] = molecular target: Muscarinic acetylcholine receptor M5 (Homo sapiens) (UniProt P08912); conditions: Compound concentration 10.0 uM
[31] = molecular target: T4, Muscarinic acetylcholine receptor M4 (Homo sapiens) (UniProt P08173); conditions: Compound concentration 10.0 uM
T4 sequence (whole entry): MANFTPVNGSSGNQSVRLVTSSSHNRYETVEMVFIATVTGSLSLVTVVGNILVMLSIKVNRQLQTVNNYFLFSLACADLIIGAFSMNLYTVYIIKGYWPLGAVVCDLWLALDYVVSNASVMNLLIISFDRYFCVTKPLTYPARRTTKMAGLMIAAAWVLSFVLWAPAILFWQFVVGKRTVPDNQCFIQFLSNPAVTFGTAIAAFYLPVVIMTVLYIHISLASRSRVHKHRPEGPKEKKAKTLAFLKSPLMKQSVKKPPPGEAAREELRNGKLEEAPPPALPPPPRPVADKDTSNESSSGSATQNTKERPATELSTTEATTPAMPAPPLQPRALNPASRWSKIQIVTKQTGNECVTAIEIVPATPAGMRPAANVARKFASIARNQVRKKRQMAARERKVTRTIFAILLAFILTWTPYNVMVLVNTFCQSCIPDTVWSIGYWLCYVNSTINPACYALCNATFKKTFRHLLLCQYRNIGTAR

[32] = molecular target: Sigma non-opioid intracellular receptor 1 (Homo sapiens) (UniProt Q99720); conditions: Compound concentration 10.0 uM
[33] = molecular target: Beta-1 adrenergic receptor (Homo sapiens) (UniProt P08588); conditions: Compound concentration 10.0 uM
[34] = molecular target: Beta-2 adrenergic receptor (Homo sapiens) (UniProt P07550); conditions: Compound concentration 10.0 uM
[35] = molecular target: D(2) dopamine receptor (Homo sapiens) (UniProt P14416); conditions: Compound concentration 10.0 uM
[36] = molecular target: Sodium-dependent noradrenaline transporter (Homo sapiens) (UniProt P23975); conditions: Compound concentration 10.0 uM
[37] = molecular target: GABA-A receptor; anion channel (Rattus norvegicus) (UniProt O09028+P15431+P18506+P18508+P19969+P20236+P23574+P23576+P28471+P28473+P30191+P62813+P63079+P63138+Q91ZM7+Q9ES14); conditions: Compound concentration 10.0 uM
[38] = molecular target: Beta-3 adrenergic receptor (Homo sapiens) (UniProt P13945); conditions: Compound concentration 10.0 uM
[39] = molecular target: T2, Kappa-type opioid receptor; test: GPCRScan assay: inhibition of KOR; parameters: radioligand conc. used [nm] 0.6 – 1.2, parental cells stable HEK
[40] = molecular target: 5-hydroxytryptamine receptor 1D (Homo sapiens, UniProt P28221); conditions: Compound concentration 10.0 uM
[41] = molecular target: Delta-type opioid receptor (Homo sapiens) (UniProt P41143); conditions: Compound concentration 10.0 uM
[42] = molecular target: 5-hydroxytryptamine receptor 6 (Homo sapiens) (UniProt P50406); conditions: Compound concentration 10.0 uM
[43] = molecular target: Alpha-2B adrenergic receptor (Homo sapiens) (UniProt P18089); conditions: Compound concentration 10.0 uM
[44] = molecular target: 5-hydroxytryptamine receptor 5A (Homo sapiens) (UniProt P47898); conditions: Compound concentration 10.0 uM
[45] = molecular target: Histamine H1 receptor (Homo sapiens) (UniProt P35367); conditions: Compound concentration 10.0 uM
[46] = molecular target: Muscarinic acetylcholine receptor M3 (Homo sapiens) (UniProt P20309); conditions: Compound concentration 10.0 uM
[47] = molecular target: 5-hydroxytryptamine receptor 3A (Homo sapiens) (UniProt P46098); conditions: Compound concentration 10.0 uM
D(3) dopamine receptor [48] = molecular target: T3, D(3) dopamine receptor; test: GPCRScan assay: inhibition of D3; parameters: radioligand conc. used [nm] 0.5 – 1.8, parental cells HEKT
[49] = molecular target: Muscarinic acetylcholine receptor M1 (Homo sapiens) (UniProt P11229); conditions: Compound concentration 10.0 uM
[50] = molecular target: Alpha-1B adrenergic receptor (Homo sapiens) (UniProt P35368); conditions: Compound concentration 10.0 uM
Spermine oxidase = Spermine oxidase (Homo sapiens, UniProt Q9NWM0); test: HyPerBlu SMOX enzymatic assay

T1 sequence (Q01959 whole entry): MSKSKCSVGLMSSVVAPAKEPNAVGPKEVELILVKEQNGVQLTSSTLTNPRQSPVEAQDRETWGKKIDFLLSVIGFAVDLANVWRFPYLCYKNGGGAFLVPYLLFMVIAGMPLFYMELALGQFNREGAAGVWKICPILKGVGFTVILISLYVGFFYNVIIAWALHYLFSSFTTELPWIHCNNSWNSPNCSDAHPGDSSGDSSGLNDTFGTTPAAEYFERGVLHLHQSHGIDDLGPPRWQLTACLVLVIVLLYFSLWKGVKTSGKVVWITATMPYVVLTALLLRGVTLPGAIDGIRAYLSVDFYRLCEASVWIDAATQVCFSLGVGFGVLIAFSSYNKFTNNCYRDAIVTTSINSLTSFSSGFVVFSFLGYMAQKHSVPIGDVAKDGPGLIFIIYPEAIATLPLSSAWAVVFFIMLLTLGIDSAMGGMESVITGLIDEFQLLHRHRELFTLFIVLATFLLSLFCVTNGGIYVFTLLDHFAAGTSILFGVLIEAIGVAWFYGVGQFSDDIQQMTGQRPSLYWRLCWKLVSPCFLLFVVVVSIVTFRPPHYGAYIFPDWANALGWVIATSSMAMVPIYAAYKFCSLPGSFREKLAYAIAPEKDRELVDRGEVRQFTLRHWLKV
T2 sequence (P41145 whole entry): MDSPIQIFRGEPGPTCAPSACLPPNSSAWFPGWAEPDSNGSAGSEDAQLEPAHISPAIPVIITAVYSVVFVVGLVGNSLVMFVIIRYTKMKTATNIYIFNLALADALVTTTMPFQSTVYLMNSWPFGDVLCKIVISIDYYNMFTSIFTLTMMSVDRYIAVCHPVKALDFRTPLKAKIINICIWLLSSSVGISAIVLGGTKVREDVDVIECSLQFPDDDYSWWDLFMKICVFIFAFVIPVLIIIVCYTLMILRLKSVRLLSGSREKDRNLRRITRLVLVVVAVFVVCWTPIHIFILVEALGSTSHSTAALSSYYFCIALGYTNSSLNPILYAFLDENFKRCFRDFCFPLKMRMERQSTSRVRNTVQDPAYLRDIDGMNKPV
T3 sequence (P35462 whole entry): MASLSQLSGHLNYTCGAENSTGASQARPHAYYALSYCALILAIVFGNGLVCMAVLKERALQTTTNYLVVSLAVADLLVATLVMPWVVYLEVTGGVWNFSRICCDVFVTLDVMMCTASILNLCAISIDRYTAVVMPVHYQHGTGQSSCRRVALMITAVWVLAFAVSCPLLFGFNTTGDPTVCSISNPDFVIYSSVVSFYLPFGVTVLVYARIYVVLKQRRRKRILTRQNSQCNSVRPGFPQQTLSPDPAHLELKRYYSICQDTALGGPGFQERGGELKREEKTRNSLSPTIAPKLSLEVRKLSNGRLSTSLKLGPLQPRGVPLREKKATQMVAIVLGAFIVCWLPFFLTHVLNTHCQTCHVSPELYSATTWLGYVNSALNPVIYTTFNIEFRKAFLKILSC
5-hydroxytryptamine receptor 1B, sequence (P28222 whole entry): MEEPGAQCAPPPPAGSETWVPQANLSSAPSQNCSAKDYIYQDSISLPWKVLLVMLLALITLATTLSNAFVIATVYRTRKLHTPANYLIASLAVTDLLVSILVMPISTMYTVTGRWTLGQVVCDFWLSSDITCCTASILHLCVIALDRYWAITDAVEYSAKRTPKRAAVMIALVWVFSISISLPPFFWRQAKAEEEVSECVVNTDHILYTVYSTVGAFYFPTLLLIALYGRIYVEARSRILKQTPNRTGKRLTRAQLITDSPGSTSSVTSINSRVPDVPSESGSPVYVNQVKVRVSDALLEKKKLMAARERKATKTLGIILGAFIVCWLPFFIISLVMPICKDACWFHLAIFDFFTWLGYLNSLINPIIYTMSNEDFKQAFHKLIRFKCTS
5-hydroxytryptamine receptor 1D, sequence (P28221 whole entry): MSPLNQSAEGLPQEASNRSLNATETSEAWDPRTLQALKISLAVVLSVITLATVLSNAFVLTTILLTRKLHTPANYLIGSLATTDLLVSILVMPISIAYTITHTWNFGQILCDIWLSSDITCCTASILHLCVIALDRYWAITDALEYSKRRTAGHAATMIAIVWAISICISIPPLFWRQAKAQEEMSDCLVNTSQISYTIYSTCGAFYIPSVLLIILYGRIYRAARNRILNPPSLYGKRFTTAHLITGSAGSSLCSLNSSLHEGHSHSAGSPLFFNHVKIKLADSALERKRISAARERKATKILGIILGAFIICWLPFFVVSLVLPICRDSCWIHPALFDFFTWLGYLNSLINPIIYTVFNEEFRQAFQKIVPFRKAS
D(1A) dopamine receptor (Homo sapiens), sequence (P21728 whole entry): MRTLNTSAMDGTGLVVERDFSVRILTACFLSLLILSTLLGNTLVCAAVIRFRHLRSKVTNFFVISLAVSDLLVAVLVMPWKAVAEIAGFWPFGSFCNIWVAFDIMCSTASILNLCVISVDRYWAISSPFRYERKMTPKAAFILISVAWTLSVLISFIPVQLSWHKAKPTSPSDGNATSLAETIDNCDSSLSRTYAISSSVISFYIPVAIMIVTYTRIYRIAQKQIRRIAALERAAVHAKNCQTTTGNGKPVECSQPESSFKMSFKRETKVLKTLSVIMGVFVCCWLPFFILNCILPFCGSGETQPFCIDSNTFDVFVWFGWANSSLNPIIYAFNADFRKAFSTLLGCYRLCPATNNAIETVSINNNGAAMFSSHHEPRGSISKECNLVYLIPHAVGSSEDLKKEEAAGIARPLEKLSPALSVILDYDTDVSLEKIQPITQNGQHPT
Histamine H1 receptor (Homo sapiens), sequence (P35367 whole entry): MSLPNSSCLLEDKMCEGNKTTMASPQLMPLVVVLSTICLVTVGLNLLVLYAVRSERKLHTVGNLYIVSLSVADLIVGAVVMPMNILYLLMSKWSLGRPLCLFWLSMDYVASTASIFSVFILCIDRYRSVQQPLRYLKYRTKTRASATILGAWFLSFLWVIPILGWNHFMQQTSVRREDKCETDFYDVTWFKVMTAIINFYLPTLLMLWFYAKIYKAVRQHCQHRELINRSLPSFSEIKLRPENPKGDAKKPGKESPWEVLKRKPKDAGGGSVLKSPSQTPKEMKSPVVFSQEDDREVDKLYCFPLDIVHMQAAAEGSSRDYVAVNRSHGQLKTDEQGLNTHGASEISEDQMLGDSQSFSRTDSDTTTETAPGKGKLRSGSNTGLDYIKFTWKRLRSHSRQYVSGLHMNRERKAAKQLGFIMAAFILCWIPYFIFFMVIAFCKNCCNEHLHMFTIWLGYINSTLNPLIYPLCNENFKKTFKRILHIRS
Muscarinic acetylcholine receptor M3 (Homo sapiens), sequence (P20309 whole entry, looked up): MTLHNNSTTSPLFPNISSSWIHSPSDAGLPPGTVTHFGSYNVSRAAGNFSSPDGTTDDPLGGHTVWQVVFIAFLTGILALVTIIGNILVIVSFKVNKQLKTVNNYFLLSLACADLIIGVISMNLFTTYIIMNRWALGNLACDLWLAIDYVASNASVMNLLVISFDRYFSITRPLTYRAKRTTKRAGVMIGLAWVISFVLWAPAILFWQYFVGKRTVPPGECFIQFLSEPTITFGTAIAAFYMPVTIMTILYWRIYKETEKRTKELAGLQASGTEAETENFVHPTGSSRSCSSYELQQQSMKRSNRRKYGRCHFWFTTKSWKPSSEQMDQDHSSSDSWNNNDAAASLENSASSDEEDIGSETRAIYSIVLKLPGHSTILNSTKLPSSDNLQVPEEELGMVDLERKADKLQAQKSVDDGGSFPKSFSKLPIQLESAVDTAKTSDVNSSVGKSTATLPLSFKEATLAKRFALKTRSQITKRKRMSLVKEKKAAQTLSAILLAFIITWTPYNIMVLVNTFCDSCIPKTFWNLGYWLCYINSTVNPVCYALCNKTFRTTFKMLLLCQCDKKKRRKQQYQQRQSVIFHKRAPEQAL
Beta-1 adrenergic receptor (Homo sapiens), sequence (P08588 whole entry, looked up): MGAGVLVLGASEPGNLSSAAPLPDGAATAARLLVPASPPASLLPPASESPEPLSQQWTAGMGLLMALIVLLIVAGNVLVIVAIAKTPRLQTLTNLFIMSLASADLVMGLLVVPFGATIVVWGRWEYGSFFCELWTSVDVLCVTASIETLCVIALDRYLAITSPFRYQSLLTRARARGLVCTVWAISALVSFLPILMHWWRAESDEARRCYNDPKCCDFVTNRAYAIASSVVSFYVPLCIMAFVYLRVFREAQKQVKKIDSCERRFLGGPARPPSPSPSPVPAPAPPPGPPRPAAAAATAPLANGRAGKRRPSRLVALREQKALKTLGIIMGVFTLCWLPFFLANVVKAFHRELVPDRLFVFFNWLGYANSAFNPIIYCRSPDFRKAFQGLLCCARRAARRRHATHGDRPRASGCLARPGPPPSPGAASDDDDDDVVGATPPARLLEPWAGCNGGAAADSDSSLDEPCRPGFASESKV
Muscarinic acetylcholine receptor M1 (Homo sapiens), sequence (P11229 whole entry): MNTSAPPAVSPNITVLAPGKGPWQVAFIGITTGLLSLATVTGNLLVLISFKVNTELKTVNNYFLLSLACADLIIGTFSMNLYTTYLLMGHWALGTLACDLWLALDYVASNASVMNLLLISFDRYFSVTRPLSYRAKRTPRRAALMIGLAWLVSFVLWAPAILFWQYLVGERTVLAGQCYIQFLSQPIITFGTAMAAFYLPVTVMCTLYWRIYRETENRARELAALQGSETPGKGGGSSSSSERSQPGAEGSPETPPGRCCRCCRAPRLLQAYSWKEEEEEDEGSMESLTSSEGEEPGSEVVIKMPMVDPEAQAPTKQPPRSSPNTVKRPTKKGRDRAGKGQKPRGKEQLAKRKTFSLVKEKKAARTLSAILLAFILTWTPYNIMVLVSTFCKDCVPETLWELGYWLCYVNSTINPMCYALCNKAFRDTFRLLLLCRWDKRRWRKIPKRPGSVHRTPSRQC
Sigma intracellular receptor 2, sequence (Q5BJF2 whole entry): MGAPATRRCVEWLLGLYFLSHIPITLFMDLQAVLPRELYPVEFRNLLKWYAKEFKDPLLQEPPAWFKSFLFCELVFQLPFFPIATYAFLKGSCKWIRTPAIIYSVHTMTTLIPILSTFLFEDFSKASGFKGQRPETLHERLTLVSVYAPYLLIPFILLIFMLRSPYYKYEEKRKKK

inhibition (Rattus norvegicus): 96.6% | IC50 [1]: 2.1 µM (not active) | inhibition [2]: 7.86% | inhibition [3]: 38.4% | inhibition [4]: 10.8% | Ki [5]: 1.31 µM | inhibition [6]: 15% | inhibition [7]: 28.1% | Ki ([8]; read-out: Ki): 6.55 µM | Ki ([8]; read-out: pKi (converted)): 6.61 µM | Ki [9]: 0.306 µM | pKi [9]: 6.51 | inhibition [10]: 0.12% | inhibition [11]: 17.8% | Ki (D(4) dopamine receptor): 3.39 µM | Ki [12]: 9.78 µM | inhibition [13]: -7.41% | inhibition [14]: 79.9% | inhibition [15]: 39.3% | inhibition [16]: 25.4% | inhibition [17]: 89.3% | inhibition [18]: 90.7% | inhibition [19]: 12.9% | inhibition [20]: -1.48% | inhibition [21]: 16.5% | inhibition (D(3) dopamine receptor [22]): 90% | inhibition [23]: 25.4% | inhibition [24]: 22.7% | inhibition [25]: 17.5% | inhibition [26]: 15.1% | inhibition [27]: 6.04% | inhibition [28]: 46.1% | inhibition [29]: 27.9% | inhibition [30]: 30.3% | inhibition [31]: 51.6% | inhibition [32]: 21.2% | inhibition [33]: 4.27% | inhibition [34]: -7.96% | inhibition [35]: 32.2% | inhibition [36]: 49.4% | inhibition [37]: 25.9% | inhibition [38]: -5.81% | Ki [39]: 0.198 µM | inhibition [40]: 48.5% | inhibition [41]: 49.3% | inhibition [42]: -8.97% | inhibition [43]: 10.8% | inhibition [44]: 6.76% | inhibition [45]: 14.9% | inhibition [46]: 33.5% | inhibition [47]: 16.2% | Ki (D(3) dopamine receptor [48]): 3.6 µM | inhibition [49]: 18.5% | inhibition [50]: 75.3% | IC50 (Spermine oxidase): > 31 µM (not active)
Compound: CC(=O)Nc1ccc(-c2cc(-c3ccccc3)nc3cc(C(=O)NCCCn4ccnc4)nn23)cc1
